The source of these data is ChEMBL document CHEMBL1201862, “PubChem BioAssay data set” (2004).

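These data come from cells grown in 96-well plates and exposed to compound for 48 hours at five concentrations. At the GI50, growth is halved.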 Calls of active or inactive are those of the source. Cut-off read from the data, not from the text of the source: active = GI50 up to about 1.1 µM and inactive = higher.

Some test systems named below: SF-539; CCRF-CEM; KM12; SR; M14; A498; NCI-H522; NCI/ADR-RES; OVCAR-4; SW-620; SK-MEL-2; SN12C; TK-10; MCF7; MOLT-4; LOX IMVI; IGROV-1; NCI-H460; UO-31; HCC 2998.
Holding throughout (assay): NCI tumour cell line growth inhibition, 48 h

Turning to `CN1CCc2c(sc3ncn(Nc4ccc(F)cc4)c(=N)c23)C1`, the GI50 in the assay on SF-539, in the assay on CCRF-CEM, in the assay with KM12, in the assay on SR, in the assay with M14 and in the assay with A498 was > 100 µM (inactive) each time. For the same compound, the GI50 was 65 µM (inactive) in the assay on NCI-H522; > 100 µM (inactive) in the assay on NCI/ADR-RES; > 100 µM (inactive) in the assay with OVCAR-4; > 100 µM (inactive) with SW-620; > 100 µM (inactive) with SK-MEL-2; > 100 µM (inactive) in the assay on SN12C. For the same compound, the GI50 in the assay on TK-10, in the assay on MCF7, with MOLT-4, in the assay with LOX IMVI, in the assay with IGROV-1 and in the assay on NCI-H460 was > 100 µM (inactive) each time.

Turning to `CC/C(=C\c1ccc(OC)cc1)c1ccc(OC)cc1`, the GI50 with SF-539 was > 100 µM (inactive); in the assay with CCRF-CEM it was > 100 µM (inactive); in the assay with KM12 it was > 100 µM (inactive); in the assay on M14 it was 72.6 µM (inactive); in the assay on A498 it was > 100 µM (inactive); in the assay with NCI-H522 it was > 100 µM (inactive). Besides, the GI50 is > 100 µM (inactive) in the assay on NCI/ADR-RES; > 100 µM (inactive) in the assay on UO-31; > 100 µM (inactive) with OVCAR-4; > 100 µM (inactive) with SW-620; 65.6 µM (inactive) in the assay with SK-MEL-2; > 100 µM (inactive) in the assay with SN12C. The GI50 was > 100 µM (inactive) in the assay with TK-10; > 100 µM (inactive) with MCF7; > 100 µM (inactive) in the assay on HCC 2998; 52.5 µM (inactive) in the assay with MOLT-4; 70.6 µM (inactive) in the assay on LOX IMVI; > 100 µM (inactive) in the assay on IGROV-1. The GI50 in the assay with NCI-H460 was > 100 µM (inactive).

Regarding `COC(=O)[C@@H]1CO[C@H](C(C)(C)C)N1C(=O)N1C=CC(=O)C[C@H]1C`, the GI50 in the assay with CCRF-CEM, with KM12, with SR, in the assay with M14, in the assay on A498 and with NCI-H522 was > 100 µM (inactive) each time. The GI50 with NCI/ADR-RES, in the assay with UO-31, in the assay on SW-620, in the assay on SK-MEL-2, with SN12C and in the assay on TK-10 was > 100 µM (inactive) in each case. For the same compound, the GI50 in the assay with MCF7 was > 100 µM (inactive); with MOLT-4, > 10 µM (inactive); in the assay on LOX IMVI, > 100 µM (inactive); in the assay with IGROV-1, > 100 µM (inactive).

In the case of `COc1ccc(N2C(=O)C3ON(Cc4ccc(CC(N)=O)cc4)C(c4c5ccccc5c(C)c5ccccc45)C3C2=O)cc1` (centres undefined), the GI50 with CCRF-CEM was 12.4 µM (inactive); with KM12, 12.1 µM (inactive); in the assay on SR, 12.6 µM (inactive); in the assay with M14, 24.3 µM (inactive); in the assay with A498, 46.1 µM (inactive); in the assay on NCI-H522 it was 20 µM (inactive). For the same compound, the GI50 with NCI/ADR-RES was 35.8 µM (inactive); in the assay on UO-31, 16.4 µM (inactive); in the assay with OVCAR-4, 13.6 µM (inactive); in the assay with SW-620 it was 25.9 µM (inactive); in the assay with SK-MEL-2 it was 20.1 µM (inactive); in the assay with SN12C, 33.7 µM (inactive). The GI50 in the assay on TK-10 is 17.8 µM (inactive); in the assay with MCF7, 17.7 µM (inactive); in the assay with MOLT-4, 2.2 µM (inactive); in the assay on LOX IMVI it was 26.4 µM (inactive); with IGROV-1 it was 27.3 µM (inactive); in the assay on NCI-H460, 13.6 µM (inactive).

With `C[C@]12CC[C@H](O)CC1=CC[C@@H]1[C@@H]2CC[C@]2(C)C(=N/N)/C(=N\O)C[C@@H]12`, the GI50 is > 100 µM (inactive) with SF-539; 44.2 µM (inactive) in the assay on CCRF-CEM; 38.2 µM (inactive) in the assay with KM12; 7.78 µM (inactive) with SR; > 100 µM (inactive) in the assay with M14; 16.7 µM (inactive) with A498. The GI50 in the assay on NCI-H522 is 31.7 µM (inactive); in the assay with NCI/ADR-RES, > 100 µM (inactive); with UO-31, > 100 µM (inactive); in the assay with OVCAR-4, 57.4 µM (inactive); in the assay on SW-620, 60 µM (inactive); in the assay on SK-MEL-2 it was 88.5 µM (inactive). Further, the GI50 in the assay with SN12C was > 100 µM (inactive); with TK-10, > 100 µM (inactive); in the assay with MCF7, > 100 µM (inactive); in the assay on MOLT-4 it was 16.4 µM (inactive); with LOX IMVI, 57 µM (inactive); with IGROV-1, 21 µM (inactive).

Regarding `CN(C)CC(O)c1ccc(Cl)c2ccccc12` (centres undefined), the GI50 in the assay on SF-539 is 50.1 µM (inactive); with CCRF-CEM, 20 µM (inactive); in the assay with KM12 it was 50.4 µM (inactive); with M14, 16.7 µM (inactive); in the assay with A498, 22.4 µM (inactive); in the assay on NCI-H522 it was 33.2 µM (inactive). The GI50 in the assay with NCI/ADR-RES was 81.5 µM (inactive); with UO-31, 19.9 µM (inactive); in the assay on OVCAR-4, 63.4 µM (inactive); in the assay on SW-620 it was > 83.9 µM (inactive); in the assay with SK-MEL-2 it was 19.3 µM (inactive); in the assay on SN12C it was 43.3 µM (inactive). For the same compound, the GI50 in the assay on TK-10 is 34.3 µM (inactive); in the assay with MCF7, 32.7 µM (inactive); in the assay with HCC 2998, 15.8 µM (inactive); in the assay with MOLT-4 it was 23.2 µM (inactive); with LOX IMVI it was 22.3 µM (inactive); in the assay on IGROV-1, 39.5 µM (inactive). Besides, the GI50 in the assay on NCI-H460 was 31.2 µM (inactive).

For `CN(C)/N=N/c1ccc2[nH]c(=O)[nH]c2c1`, the GI50 in the assay with SF-539 is > 100 µM (inactive); with CCRF-CEM, 62.2 µM (inactive); in the assay on KM12 it was > 100 µM (inactive); in the assay on M14, > 100 µM (inactive); in the assay on A498, > 100 µM (inactive); in the assay on NCI-H522 it was > 100 µM (inactive). Also, the GI50 in the assay with NCI/ADR-RES, in the assay with UO-31, with OVCAR-4, with SW-620, with SK-MEL-2 and with SN12C was > 100 µM (inactive) in each case. Besides, the GI50 with TK-10, with MCF7, with HCC 2998, in the assay with LOX IMVI, in the assay on IGROV-1 and with NCI-H460 was > 100 µM (inactive) throughout.

For `c1ccc([P+](c2ccccc2)(c2ccccc2)c2ccc([P+](c3ccccc3)(c3ccccc3)c3ccccc3)cc2)cc1`, the GI50 in the assay with SF-539 is 24.8 µM (inactive); in the assay on CCRF-CEM it was 22.9 µM (inactive); in the assay with KM12, 31 µM (inactive); in the assay on SR it was 0.0815 µM (active); with M14 it was 82 µM (inactive); in the assay with A498 it was > 100 µM (inactive). In addition, the GI50 was 37.1 µM (inactive) in the assay with NCI-H522; > 100 µM (inactive) with NCI/ADR-RES; > 100 µM (inactive) with UO-31; > 100 µM (inactive) with SW-620; 34.3 µM (inactive) in the assay with SK-MEL-2; 35.7 µM (inactive) in the assay on SN12C. Moreover, the GI50 in the assay with TK-10 is 60.7 µM (inactive); in the assay on MCF7 it was 32.4 µM (inactive); in the assay with MOLT-4 it was 24.7 µM (inactive); in the assay with LOX IMVI, 34.3 µM (inactive); in the assay with IGROV-1, 59.7 µM (inactive); with NCI-H460 it was 43.5 µM (inactive).
